The values below are quoted from earlier work in patent US20020035459A1, “PHARMACOKINETIC-BASED DRUG DESIGN TOOL AND METHOD” (priority 1998, published 2002).

The subject of series [1] is rabbit intestinal tissue. The conditions noted are these: donor concentration per compound; for Pe Colon: rabbit colon; for Pe Duodenum: rabbit duodenum; for Pe Ileum: rabbit ileum; for Pe Jejunum: rabbit jejunum.
The subject of series [2] is intestinal mucosa. The conditions noted are these: permeability standards.
The conditions of series [3]: plasma kinetics, first order transfer.

With `C[C@]12CCC(=O)C=C1CC[C@@H]1[C@@H]2[C@@H](O)C[C@@]2(C)[C@H]1CC[C@]2(O)C(=O)CO` [hydrocortisone], in series [1], the “Pe Colon” value is 3.85 ×10⁻⁶ cm/s, the “Pe Duodenum” value was 0.3 ×10⁻⁶ cm/s, the “Pe Ileum” value is 2.91 ×10⁻⁶ cm/s and the “Pe Jejunum” value was 1.31 ×10⁻⁶ cm/s.
As for `OC[C@@H](O)[C@@H](O)[C@H](O)[C@H](O)CO` [mannitol], in series [1], the “Pe Colon” value was 5.53 ×10⁻⁶ cm/s, the “Pe Duodenum” value is 1.73 ×10⁻⁶ cm/s, the “Pe Ileum” value was 4.02 ×10⁻⁶ cm/s and the “Pe Jejunum” value was 3.54 ×10⁻⁶ cm/s. Besides, in series [2], the Transport mechanism result was “Passive Paracellular”.
For the molecule `O=C[C@H](O)[C@@H](O)[C@H](O)[C@H](O)CO` [D-glucose], in series [1], the “Pe Colon” value is 9.28 ×10⁻⁶ cm/s, the “Pe Duodenum” value is 4.55 ×10⁻⁶ cm/s, the “Pe Ileum” value is 14.5 ×10⁻⁶ cm/s and the “Pe Jejunum” value was 10.2 ×10⁻⁶ cm/s. Further, the Transport mechanism result in series [2] is reported as “Carrier-mediated Influx”.
With `Nc1nc2c(ncn2COC(CO)CO)c(=O)[nH]1.[Na]` [Gancyclovir, 9-(1,3-dihydroxy-2-propoxymethyl)guanine, monosodium salt], the k21 in series [3] is given as 0.670.
